Reference: publication PMC3877894, “Cytotoxic, Cytostatic and HIV-1 PR Inhibitory Activities of the Soft Coral Litophyton arboreum” (Marine Drugs, 2013)
Several values for one entry are separate records, joined by “and”; a condition that tells them apart may be missing. Equal values may be shown once. Entries after “also recorded” stand apart in the source; their conditions may differ. Read-outs that look alike come from different tables or passages of the source.

What was measured:
HeLa cells [1] = experiment: Real-time cell electronic sensing (RT-CES, xCELLigence) in HeLa cells; format: cell-based; conditions: for RT-CES (xCELLigence) effect in HeLa: 100 µg/mL
Description: The xCELLigence system was used according to the instructions of the supplier (Roche Diagnostics, Mannheim, Germany and ACEA Biosciences, San Diego, CA, USA). HeLa cell line, media, trypsin-EDTA, fetal bovine serum (FBS), phosphate buffer saline (PBS), and antibiotics were supplied by […] Biological (Pty) Ltd. (Modderfontein, Johannesburg, South Africa). The electronic impedance of sensor electrodes that connect the E plate to the instrument is measured to allow monitoring and detection of physiological changes of the cells on the electrodes. The impedance measured between electrodes in an individual well depends on electrode geometry, ion concentration in the well and whether or not cells are attached to the electrodes. In the absence of cells, electrode impedance is mainly determined by the ion environment, both at the electrode/solution interface, and in the bulk solution. In the presence of cells, cells attached to the electrode sensor surfaces will act as insulators and thereby alter the local ion environment at the electrode/solution interface, leading to an increase in impedance. Thus, the more cells that are growing on the electrodes, the larger the value of electrode impedance. This assay has been described for the measurement of cytotoxicity and can be used to determine other cellular parameters such as cell proliferation, cytotoxicity start time, cell recovery, and cell response patterns in real time. HeLa cells were grown and expanded in tissue-culture flasks. After reaching ~75% confluence, the HeLa were washed with PBS, and afterwards detached from the flasks by a brief treatment with trypsin. Subsequently, 50 μL of cell culture media at room temperature was added into each well of E-plate. After this the plate was connected to the system and checked in the cell culture incubator for proper electrical-contacts and the background impedance was measured over 24 h. […] One-hundred microliters of each cell suspension was added to the 50 μL medium containing wells on the E-plate, in order to determine the optimum cell concentration. After 30 min incubation at room temperature, E-plates were placed into the cell culture incubator. Finally, adhesion, growth, and proliferation of the cells was monitored every 30 min for a period of up to 18 h via the incorporated sensor electrode arrays of the E-Plate. The electrical impedance was measured by the RTCA-integrated software of the xCELLigence system as a dimensionless parameter termed Cell index (CI). […] All experiments were run for 72 h after adding the compounds. All calculations were obtained using the RTCA-integrated software of the xCELLigence system.

[2] = XTT cytotoxicity assay in Vero cells; conditions: African green monkey
Description: (§1) HeLa, U937, and Vero cell lines were maintained in culture flasks containing Eagle’s Minimum Essential Medium supplemented with 10% heat-inactivated FBS and 1% antibiotics (100 U/mL penicillin, 100 μg/mL streptomycin, and 250 μg/mL fungizone). The cells were grown at 37 °C in a humidified incubator set at 5% CO2. Cells were subcultured after they formed a monolayer on the flask. The cells were detached by treating them with trypsin-EDTA (0.25% trypsin containing 0.01% EDTA) for 10 minutes and then by adding complete medium to inhibit the reaction. Cytotoxicity was measured by the XTT method using the Cell Proliferation Kit II. The method described by Zheng et al. was used to perform the assay. Cells were seeded (100 μL) in a 96-well microtiter plate (concentration 1 × 10^5 cells/mL). The plate was then incubated for 24 h at 37 °C and 5% CO2 to allow the cells to attach to the bottom of the wells. The compounds were each prepared to a stock solution of 20 mg/mL and added to the microtiter plate. Serial dilutions were made to range from a concentration of 100 μg/mL–0.7 μg/mL for each compound. The microtiter plate was incubated for a further 72 h. The control wells included vehicle-treated cells exposed to 2% DMSO and the positive control Actinomycin D, with concentrations ranging between 0.5 μg/mL and 0.002 μg/mL. After the 72 h incubation period, the XTT reagent (50 μL) was added to a final concentration of 0.3 mg/mL and the plate was then further incubated for another 2 h. After the incubation the absorbance of the color complex was read at 490 nm with a reference wavelength set at 690 nm. […] The IC50 values were reported at ±95% confidence intervals (±95% CI). The results were analyzed using the GraphPad Prism 4 program.

[3] = XTT cytotoxicity assay in U937 cells; conditions: human
Description: as §1

[4] = XTT cytotoxicity assay in HeLa cells; conditions: human; for IC50 at 72 h: Cytotoxicity IC50 HeLa
Description: as §1

HIV-1 PR = target: T1, HIV-1 PR (Human immunodeficiency virus type 1 group M subtype B, UniProt P04585); experiment: HIV-1 protease direct enzyme assay (fluorogenic peptide substrate); format: biochemical; conditions: for inhibition at 100 µg/mL: screened at 100 µg/mL
T1 construct: HIV-1 protease enzyme was purchased from Bachem Bioscience Inc; purchased Bachem Bioscience Inc
Description: HIV-1 protease enzyme was purchased from Bachem Bioscience Inc. King of Prussia, PA, […] and the substrate (a synthetic peptide that contains a cleavage site Tyr-Pro for HIV protease as well as two covalently modiﬁed amino acids for the detection of cleavage). The assay was performed according to procedures by Lam et al., 2000 [39], in black 96 well assay plates obtained from Corning Incorporated, (Corning, New York, NY, USA). The fluorescence intensity was measured at an excitation wavelength of 355 nm and an emission wavelength of 460 nm using a synergy microplate spectrofluorometer (BioTek, Analytical & Diagnostic products, South Africa). […] DMSO was included in the enzyme control (1% DMSO). […] The percentage inhibition was calculated based on the formula: 100 − [(Test reagent RFU − background RFU)/(untreated control RFU − blank) × 100] where RFU = relative fluorescence units.
All the experiments were repeated three times in order to ensure the precision and accuracy of the data.

Vero cell line = experiment: XTT cytotoxicity assay in Vero cells; conditions: at 4.85 µM (HIV-1 PR IC50 concentration)
Description: as §1

P-388 = conditions: cited from earlier work
A549 cancer cell lines = conditions: cited from earlier work
U937 cells = experiment: XTT cytotoxicity assay in U937 cells; conditions: at 4.85 µM (HIV-1 PR IC50 concentration)
Description: as §1

KB = tested on: KB; design: method as in PMID 9722490; conditions: cited from earlier work
HeLa cells [5] = experiment: XTT cytotoxicity assay in HeLa cells; conditions: for IC50: read-out: Cytotoxicity IC50 HeLa, XTT, 72 h incubation
Description: as §1

[6] = tested on: human prostate cancer cell line LNCaP; conditions: cited from earlier work
HT-29 = conditions: cited from earlier work
[7] = HeLa cells, XTT, 72 h incubation

Compound | RT-CES (xCELLigence) effect in HeLa (HeLa cells [1]) | IC50 at 72 h ([2]; Vero cells) [µM] | IC50 at 72 h ([3]; U937 cells) [µM] | IC50 at 72 h [4, 7] [µM] | IC50 (HIV-1 PR; read-out: IC50 HIV-1 PR) [µM] | inhibition at 100 µg/mL (HIV-1 PR) [%] | Cytotoxicity P-388 (P-388) [µg/mL] | Cytotoxicity A549 (A549 cancer cell lines) [µg/mL] | IC50 at 72 h [3] | Cytotoxicity KB (KB) [µg/mL] | IC50 (HeLa cells [5]) [µM] | Cytotoxicity IC50 LNCaP [6] [µg/mL] | Cytotoxicity HT-29 (HT-29) [µg/mL] | also measured
CC(C)C1=C[C@H]2[C@@H](CC[C@]2(C)O)[C@](C)(O)CC1 [Compound 5, alismoxide] | cytostatic effect | > 100 | > 100 | > 100 |  |  |  |  |  |  |  |  |  | RT-CES effect in HeLa (HeLa cells [1]; 60 μg/mL (Figure 5)): cytostatic behavior; inhibition of cell proliferation compared to untreated cells (RT-CES) (HeLa cells [1]; HeLa, Figure 5): 50%
CCCCCCCCCCCCCCCCOC[C@@H](O)CO [Compound 6, (S)-chimyl alcohol] |  | 60 ± 1.14 |  | 23.4 ± 5.8 | 26.6 ± 2.6 | 100 |  |  |  |  |  |  |  | 
C=C(CCC(C)C1CCC2C3C(OC(C)=O)C=C4CC(O)CCC4(CO)C3CCC12C)C(C)C (stereo not drawn) [Compound 7, 7β-acetoxy-24-methylcholesta-5-24(28)-diene-3,19-diol] |  | 31.3 ± 14 |  | 4.3 |  | 71.5 | 0.42 | 0.81 | 7.8 µg/mL and 10.6 µM | 0.38 | 5.3 ± 0.6 | 15.5 | 0.87 | RT-CES response in HeLa (HeLa cells [1]; 2.5 µg/mL): dose dependent cytostatic response; also recorded: cytostatic effects; RT-CES response in HeLa (HeLa cells [1]; 10 and 5 µg/mL): dose dependent cytotoxic response; also recorded: dose dependent cytotoxic tendency; RT-CES cytotoxicity profile in HeLa (HeLa cells [1]; tested at IC50s obtained by XTT): confirmed their cytotoxic effects; also recorded: more toxic than the positive control; effect in Vero (normal cells) (Vero cell line): no effect; cell death in U937 (U937 cells): 20%; CC50 at 72 h ([4]; HeLa cells): 4.3 ± 0.75 µM; IC50 at 72 h ([4]; HeLa cells, XTT): 4.3 µg/mL; cell death in HeLa (HeLa cells [5]; at 4.85 µM (HIV-1 PR IC50 concentration)): 50%; IC50 (HIV-1 PR): 4.85 ± 0.18 µM
CCCCCCCCCCCCCC=CCCC=CC(O)C(CO)NC(=O)CCCCCCCCCCC (stereo not drawn) [Compound 8, erythro-N-dodecanoyl-docosasphinga-(4E,8E)-dienine] | only affected at long incubation times; also recorded: low level cytotoxicity | > 100 | > 100 | 71 | 4.8 ± 0.92 | 100 |  |  |  |  | 38.2 ± 0.7 |  |  | 
C=C(CC[C@@H](C)[C@H]1CCC2C3C(CC[C@@]21C)[C@@]1(CO)CC[C@H](O)CC1=C[C@@H]3O)C(C)C (stereo partly drawn) [Compound 9, 24-methylcholesta-5,24(28)-diene-3β,7β,19-triol] |  |  |  |  |  |  | 0.24 | 0.69 | 16.4 ± 1.25 µM | 0.58 |  | 4.9 | 0.72 | IC50 at 72 h [2]: 11.4 ± 0.04 µM; IC50 at 72 h [4]: 3.4 µg/mL and 8 µM
